Results reported in PubChem BioAssay (NCI).
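Following 48 hours of exposure in 96-well plates, responses at five concentrations were used to interpolate endpoints linearly. GI50 is the concentration that inhibits growth by half. TGI: total growth inhibition.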

How the values were obtained:
Assay in all cases: DTP human tumour cell line panel, 48 h
COLO 205 colon = test system: COLO 205 colon
DU-145 prostate = test system: DU-145 prostate
HOP-92 NSCLC = test system: HOP-92 NSCLC
HS 578T breast = test system: HS 578T breast
MDA-MB-231 breast = test system: MDA-MB-231 breast
OVCAR-5 ovarian = test system: OVCAR-5 ovarian
PC-3 prostate = test system: PC-3 prostate
SK-MEL-2 melanoma = test system: SK-MEL-2 melanoma
SK-MEL-28 melanoma = test system: SK-MEL-28 melanoma
SW-620 colon = test system: SW-620 colon

Compound	GI50 (COLO 205 colon) [µM]	TGI (COLO 205 colon) [µM]	GI50 (DU-145 prostate) [µM]	TGI (DU-145 prostate) [µM]	GI50 (HOP-92 NSCLC) [µM]	TGI (HOP-92 NSCLC) [µM]	GI50 (HS 578T breast) [µM]	TGI (HS 578T breast) [µM]	GI50 (MDA-MB-231 breast) [µM]	TGI (MDA-MB-231 breast) [µM]	GI50 (OVCAR-5 ovarian) [µM]	TGI (OVCAR-5 ovarian) [µM]	GI50 (PC-3 prostate) [µM]	TGI (PC-3 prostate) [µM]	GI50 (SK-MEL-2 melanoma) [µM]	TGI (SK-MEL-2 melanoma) [µM]	GI50 (SK-MEL-28 melanoma) [µM]	TGI (SK-MEL-28 melanoma) [µM]	GI50 (SW-620 colon) [µM]	TGI (SW-620 colon) [µM]
C=C(C)[C@@H]1CC[C@]2(C(=O)NS(=O)(=O)c3ccccc3)CC[C@]3(C)[C@H](CC[C@@H]4[C@@]5(C)CC[C@H](OC(=O)NS(=O)(=O)c6ccccc6)C(C)(C)[C@@H]5CC[C@]43C)[C@@H]12	1.54	3.08	3.18	13.8	1.9	4.72	1.49	10.1	2.92	12.1	3.02	11.8	2.11	20.6	2.01	4.97	2.05	5.32	3.27	15.2
N#Cc1cc(S(=O)(=O)Nc2nc3ccccc3o2)c(SCc2ccccc2)cc1Cl	30.6	> 100	21	46.7	17.4	34.2	25.4	62	24.8	62.9	27	52	21.4	43.4	22.3	53.4	18.9	40.4	17.9	35.5
CC1(C)CCC[C@]2(C)c3ccccc3C(=O)CC12 (stereo not given in full)	27.4	> 100	65.7	> 100	60.8	> 100	23.2	95.3	30.8	> 100	> 100	> 100	42	> 100	22	61.3	64.6	> 100	31	> 100
CC[C@H](C)[C@H](NC(=O)c1cccn1C)C(=O)N(C)[C@H](C[C@@H](OC(C)=O)c1nc(C(=O)N[C@@H](Cc2ccccc2)C[C@H](C)C(=O)OC)cs1)C(C)C	0.15	0.576	0.348	> 33.3	0.13	5.08	0.226	> 31.2	0.364	5.75	0.65	> 33.3	0.141	> 33.3	0.347	> 33.3	1.5	> 33.3	0.205	> 33.3
COc1cc2nccc(Oc3ccc(NC(=O)c4cn(C(C)C)c(=O)n(-c5ccc(F)cc5)c4=O)cc3F)c2cc1OC	> 100	> 100	> 100	> 100	0.347	> 100	2.64	89.2	2.61	39.5	5.6	> 100	6.28	> 100	> 68.1	> 100	3.19	18.1	5.77	> 100
COc1cc(NCCCCCN=C(N)NC(N)=NC(C)C)c2ncccc2c1	0.468	1.74	10.3	22.3	1.75	9.82	2.45	12.7	0.531	4.47	6.09	20.2	0.972	13.8	1.95	5.36	2.92	10.4	0.927	14
COc1c(N2CCN(CN3C(=O)C(=Nc4ccc(S(=O)(=O)Nc5ncccn5)cc4)c4cc(Cl)ccc43)C(C)C2)c(F)cc2c(=O)c(C(=O)O)cn(C3CC3)c12 (stereo not given)	18.4	> 50	16.3	> 50	19.2	> 50	11.9	42.8	8.28	31	> 50	> 50	15	> 50	26.6	> 50	30.4	> 50	10.7	44.7
CCCCn1c(=O)c(/C=C/C(=O)/C=C/c2cc3ccccc3n(CCCC)c2=O)cc2ccccc21	1.41	3.16	1.47	2.78	1.96	4.12	3.01	23.7	1.84	3.37	1.96	3.76	1.79	3.86	2.09	5.7	1.81	3.48	0.859	2.84
COc1ccc2[nH]c(C(=O)OCc3ccc4c(Cl)cc(Cl)c(O)c4n3)cc2c1	1.13	2.56	1.33	2.61	0.456	1.99	1.28	3.81	1.02	2.18	1.49	2.9	0.99	2.57	1.61	3.37	1.67	3.03	0.814	2.31
CCn1c2ccccc2c2cc(C(=O)c3ccc(C)c4ccccc34)ccc21	0.249	0.728	0.435	> 100	0.28	6.87	0.756	> 100	0.824	> 100	0.62	> 100	0.392	> 100	0.324	1.81	0.477	> 100	0.352	> 100
CNC(=O)c1cncc(/C=C/c2ccccc2Cl)c1	> 25	> 25	> 25	> 25	12.6	> 25	24.5	> 25	> 25	> 25	> 25	> 25	> 25	> 25	> 25	> 25	> 25	> 25	> 25	> 25
